{"source": "the supplement of paper PMC10733146", "experiment_in_all_cases": "viability relative to DMSO control (fraction); higher = less drug effect (more viable cells)", "details_in_all_cases": "48 h", "key": {"[1]": {"tested_on": "primary DLBCL patient cells (S076)", "summary_of_the_method": "(§1)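 Viability is given as CellTiter-Glo luminescence relative to the median of 16 inner DMSO wells. Fresh or cryopreserved primary mononuclear tumour cells from blood, bone marrow (both Ficoll-isolated) or processed lymph node were plated at 4 × 10^4 cells per well in 384-well plates against five pre-plated compound concentrations, one well each. Incubation lasted 48 h at 37 °C and 5% CO2 in RPMI-1640 with penicillin/streptomycin, L-glutamine and human serum.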"}, "[2]": {"tested_on": "primary AML patient cells (S072)", "summary_of_the_method": "as §1"}, "[3]": {"tested_on": "primary AML patient cells (S071)", "summary_of_the_method": "as §1"}, "[4]": {"tested_on": "primary AML patient cells (S037)", "summary_of_the_method": "as §1"}, "[5]": {"tested_on": "primary T-NHL patient cells (S058)", "summary_of_the_method": "as §1"}, "[6]": {"tested_on": "primary MCL patient cells (S041)", "summary_of_the_method": "as §1"}, "[7]": {"tested_on": "primary AML patient cells (S025)", "summary_of_the_method": "as §1"}, "[8]": {"tested_on": "primary AML patient cells (S019)", "summary_of_the_method": "as §1"}, "[9]": {"tested_on": "primary AML patient cells (S091)", "summary_of_the_method": "as §1"}, "[10]": {"tested_on": "primary AML patient cells (S002)", "summary_of_the_method": "as §1"}, "[11]": {"tested_on": "primary DLBCL patient cells (S082)", "summary_of_the_method": "as §1"}, "[12]": {"tested_on": "primary AML patient cells (S089)", "summary_of_the_method": "as §1"}, "[13]": {"tested_on": "primary AML patient cells (S055)", "summary_of_the_method": "as §1"}, "[14]": {"tested_on": "primary AML patient cells (S009)", "summary_of_the_method": "as §1"}, "[15]": {"tested_on": "primary DLBCL patient cells (S049)", "summary_of_the_method": "as §1"}, "[16]": {"tested_on": "primary T-PLL patient cells (S008)", "summary_of_the_method": "as §1"}, "[17]": {"tested_on": "primary AML patient cells (S079)", "summary_of_the_method": "as §1"}}, "data": [{"compound": "COc1cccc2c1C(=O)c1c(O)c3c(c(O)c1C2=O)C[C@@](O)(C(=O)CO)C[C@@H]3O[C@H]1C[C@H](N)[C@H](O)[C@H](C)O1", "note": "[Doxorubicin]", "values": [{"measurement": "viability", "setting": "[1]; 0.0016 µM", "result": 1.05}, {"measurement": "viability", "setting": "[1]; 0.008 µM", "result": 1.1}, {"measurement": "viability", "setting": "[1]; 0.04 µM", "result": 0.822}, {"measurement": "viability", "setting": "[1]; 0.2 µM", "result": 0.453}, {"measurement": "viability", "setting": "[1]; 1 µM", "result": 0.034}, {"measurement": "viability", "setting": "[2]; 0.0016 µM", "result": 1.05}, {"measurement": "viability", "setting": "[2]; 0.008 µM", "result": 1.01}, {"measurement": "viability", "setting": "[2]; 0.04 µM", "result": 0.947}, {"measurement": "viability", "setting": "[2]; 0.2 µM", "result": 0.704}, {"measurement": "viability", "setting": "[2]; 1 µM", "result": 0.162}, {"measurement": "viability", "setting": "[3]; 0.0016 µM", "result": 0.978}, {"measurement": "viability", "setting": "[3]; 0.008 µM", "result": 0.745}, {"measurement": "viability", "setting": "[3]; 0.04 µM", "result": 0.27}, {"measurement": "viability", "setting": "[3]; 0.2 µM", "result": 0.116}, {"measurement": "viability", "setting": "[3]; 1 µM", "result": 0.0761}, {"measurement": "viability", "setting": "[4]; 0.0016 µM", "result": 1.06}, {"measurement": "viability", "setting": "[4]; 0.008 µM", "result": 1.05}, {"measurement": "viability", "setting": "[4]; 0.04 µM", "result": 0.979}, {"measurement": "viability", "setting": "[4]; 0.2 µM", "result": 0.737}, {"measurement": "viability", "setting": "[4]; 1 µM", "result": 0.447}, {"measurement": "viability", "setting": "[5]; 0.0016 µM", "result": 1.03}, {"measurement": "viability", "setting": "[5]; 0.008 µM", "result": 0.96}, {"measurement": "viability", "setting": "[5]; 0.04 µM", "result": 0.823}, {"measurement": "viability", "setting": "[5]; 0.2 µM", "result": 0.525}, {"measurement": "viability", "setting": "[5]; 1 µM", "result": 0.145}, {"measurement": "viability", "setting": "[6]; 0.0016 µM", "result": 0.994}, {"measurement": "viability", "setting": "[6]; 0.008 µM", "result": 1}, {"measurement": "viability", "setting": "[6]; 0.04 µM", "result": 0.942}, {"measurement": "viability", "setting": "[6]; 0.2 µM", "result": 0.488}, {"measurement": "viability", "setting": "[6]; 1 µM", "result": 0.0259}, {"measurement": "viability", "setting": "[7]; 0.0016 µM", "result": 0.99}, {"measurement": "viability", "setting": "[7]; 0.008 µM", "result": 1.01}, {"measurement": "viability", "setting": "[7]; 0.04 µM", "result": 0.848}, {"measurement": "viability", "setting": "[7]; 0.2 µM", "result": 0.501}, {"measurement": "viability", "setting": "[7]; 1 µM", "result": 0.119}, {"measurement": "viability", "setting": "[8]; 0.0016 µM", "result": 1.02}, {"measurement": "viability", "setting": "[8]; 0.008 µM", "result": 1.06}, {"measurement": "viability", "setting": "[8]; 0.04 µM", "result": 0.828}, {"measurement": "viability", "setting": "[8]; 0.2 µM", "result": 0.481}, {"measurement": "viability", "setting": "[8]; 1 µM", "result": 0.219}, {"measurement": "viability", "setting": "[9]; 0.0016 µM", "result": 0.983}, {"measurement": "viability", "setting": "[9]; 0.008 µM", "result": 0.905}, {"measurement": "viability", "setting": "[9]; 0.04 µM", "result": 0.737}, {"measurement": "viability", "setting": "[9]; 0.2 µM", "result": 0.637}, {"measurement": "viability", "setting": "[9]; 1 µM", "result": 0.499}, {"measurement": "viability", "setting": "[10]; 0.0016 µM", "result": 1.06}, {"measurement": "viability", "setting": "[10]; 0.008 µM", "result": 1.08}, {"measurement": "viability", "setting": "[10]; 0.04 µM", "result": 0.695}, {"measurement": "viability", "setting": "[10]; 0.2 µM", "result": 0.401}, {"measurement": "viability", "setting": "[10]; 1 µM", "result": 0.33}, {"measurement": "viability", "setting": "[11]; 0.0016 µM", "result": 1.11}, {"measurement": "viability", "setting": "[11]; 0.008 µM", "result": 1.1}, {"measurement": "viability", "setting": "[11]; 0.04 µM", "result": 0.945}, {"measurement": "viability", "setting": "[11]; 0.2 µM", "result": 0.878}, {"measurement": "viability", "setting": "[11]; 1 µM", "result": 0.0843}, {"measurement": "viability", "setting": "[12]; 0.0016 µM", "result": 1.01}, {"measurement": "viability", "setting": "[12]; 0.008 µM", "result": 1}, {"measurement": "viability", "setting": "[12]; 0.04 µM", "result": 1.01}, {"measurement": "viability", "setting": "[12]; 0.2 µM", "result": 0.665}, {"measurement": "viability", "setting": "[12]; 1 µM", "result": 0.187}, {"measurement": "viability", "setting": "[13]; 0.0016 µM", "result": 1.02}, {"measurement": "viability", "setting": "[13]; 0.008 µM", "result": 0.99}, {"measurement": "viability", "setting": "[13]; 0.04 µM", "result": 1.02}, {"measurement": "viability", "setting": "[13]; 0.2 µM", "result": 0.947}, {"measurement": "viability", "setting": "[13]; 1 µM", "result": 0.487}, {"measurement": "viability", "setting": "[14]; 0.0016 µM", "result": 1.07}, {"measurement": "viability", "setting": "[14]; 0.008 µM", "result": 0.994}, {"measurement": "viability", "setting": "[14]; 0.04 µM", "result": 0.934}, {"measurement": "viability", "setting": "[14]; 0.2 µM", "result": 0.644}, {"measurement": "viability", "setting": "[14]; 1 µM", "result": 0.221}, {"measurement": "viability", "setting": "[15]; 0.0016 µM", "result": 1.14}, {"measurement": "viability", "setting": "[15]; 0.008 µM", "result": 1}, {"measurement": "viability", "setting": "[15]; 0.04 µM", "result": 0.827}, {"measurement": "viability", "setting": "[15]; 0.2 µM", "result": 0.3}, {"measurement": "viability", "setting": "[15]; 1 µM", "result": 0.0345}, {"measurement": "viability", "setting": "[16]; 0.0016 µM", "result": 1.04}, {"measurement": "viability", "setting": "[16]; 0.008 µM", "result": 1.15}, {"measurement": "viability", "setting": "[16]; 0.04 µM", "result": 0.972}, {"measurement": "viability", "setting": "[16]; 0.2 µM", "result": 0.958}, {"measurement": "viability", "setting": "[16]; 1 µM", "result": 0.607}, {"measurement": "viability", "setting": "[17]; 0.0016 µM", "result": 1.05}, {"measurement": "viability", "setting": "[17]; 0.008 µM", "result": 1.1}, {"measurement": "viability", "setting": "[17]; 0.04 µM", "result": 1.03}, {"measurement": "viability", "setting": "[17]; 0.2 µM", "result": 0.769}, {"measurement": "viability", "setting": "[17]; 1 µM", "result": 0.244}]}]}
